The source of these data is patent publication EP2208725A1, “Novel specific inhibitors of ubiquitin specific protease 7, the pharmaceutical compositions thereof and their therapeutic applications” (Hybrigenics S.A., priority 2009, dated 2010).

Structures are written as SMILES.

The experiment deals with T1, USP8 (Homo sapiens, UniProt P40818).
T1 construct: His (from pFastBac-HT vector); made in house; host or cells: Insect cells (Sf9 or High Five), baculovirus
T1 sequence (P40818 1-1118): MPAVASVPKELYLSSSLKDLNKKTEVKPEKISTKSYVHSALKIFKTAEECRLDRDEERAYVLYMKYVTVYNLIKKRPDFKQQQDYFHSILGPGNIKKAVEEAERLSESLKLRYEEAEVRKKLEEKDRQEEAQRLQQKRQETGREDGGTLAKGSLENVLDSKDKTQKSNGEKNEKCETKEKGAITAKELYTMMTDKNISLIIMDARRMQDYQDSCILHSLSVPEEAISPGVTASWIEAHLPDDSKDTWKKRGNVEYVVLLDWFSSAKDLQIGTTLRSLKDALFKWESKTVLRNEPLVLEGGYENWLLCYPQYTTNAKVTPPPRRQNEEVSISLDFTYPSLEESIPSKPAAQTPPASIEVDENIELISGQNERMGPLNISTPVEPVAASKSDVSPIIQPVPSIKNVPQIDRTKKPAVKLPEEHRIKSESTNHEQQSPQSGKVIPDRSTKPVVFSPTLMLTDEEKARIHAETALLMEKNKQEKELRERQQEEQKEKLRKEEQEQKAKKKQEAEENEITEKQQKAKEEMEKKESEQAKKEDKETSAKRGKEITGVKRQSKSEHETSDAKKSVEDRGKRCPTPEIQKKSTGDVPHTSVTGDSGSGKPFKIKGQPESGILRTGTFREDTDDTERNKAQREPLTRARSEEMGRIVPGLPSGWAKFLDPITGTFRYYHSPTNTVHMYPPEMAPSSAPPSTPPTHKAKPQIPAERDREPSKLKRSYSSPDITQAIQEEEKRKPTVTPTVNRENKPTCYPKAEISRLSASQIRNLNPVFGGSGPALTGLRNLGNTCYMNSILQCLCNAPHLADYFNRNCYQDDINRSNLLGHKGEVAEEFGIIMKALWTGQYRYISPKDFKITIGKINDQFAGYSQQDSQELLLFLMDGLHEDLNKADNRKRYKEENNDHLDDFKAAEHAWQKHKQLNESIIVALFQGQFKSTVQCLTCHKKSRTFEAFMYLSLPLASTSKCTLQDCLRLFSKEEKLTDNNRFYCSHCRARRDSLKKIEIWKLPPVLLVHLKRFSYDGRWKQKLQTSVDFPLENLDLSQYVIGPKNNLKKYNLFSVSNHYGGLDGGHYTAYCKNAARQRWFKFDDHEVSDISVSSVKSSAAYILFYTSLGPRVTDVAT
The experiment in a line: USP8 activity assay (Ub-AMC). The class given is biochemical. To be noted: 400 nM Ub-AMC, 1.36 nM enzyme; compounds tested from 200 µM to 91 nM; unit inferred; read-out: Inhibition of cysteine protease activities: USP8. From the text:
The cDNA encoding USP8 was obtained by PCR amplification from placenta mRNA. USP8 cDNA was subcloned by PCR into a baculovirus expression vector (pFastBac-HT; Invitrogen). A cDNA encoding a mutated USP8 was generated by mutagenic PCR. The corresponding protein encodes a cysteine to alanine substitution at residue 786. The sequences were ascertained by sequencing of the entire open reading frame. Bacmids encoding […] were generated following DH10bac transposition. The corresponding bacmids were transfected into insect cells (Sf9). Viruses were recovered from culture supernatant and amplified twice. Insect cells (Sf9 or High Five; Invitrogen) were infected for 72 hours. Total cell lysates were harvested and lyzed in lysis buffer (Tris HCl 50 mM pH7.6; 0.75 % NP40; 500 mM NaCl; 10 % glycerol; 1 mM DTT; 10 mM imidazole; Protease Inhibitor Cocktail; AEBSF 20 µg.ml^-1; Aprotinin 10 µg.ml^-1). Proteins were affinity purified on metal affinity resins (Talon Metal affinity resin; BD Biosciences). Bound materials were extensively washed in wash buffer (50 mM Sodium Phosphate pH 7.0; 300 mM NaCl; 10 mM imidazole; 0.5% Triton X-1 00; 10% glycerol) and eluted from the resin in 250 mM imidazole-containing wash buffer. Proteins were dialyzed in dialysis buffer (Tris HCl pH 7.6 20 mM; NaCl 200 mM; DTT 1 mM; EDTA 1 mM; 10% Glycerol). Proteins purifications were analyzed on 4-12% NuPAGE (Invitrogen).
USP8 was diluted in USP buffer (50 mM Tris HCl; 0.5 mM EDTA; 5 mM DTT; 0.01% Triton X-100; Bovine Serum Albumin 0.05 mg.ml^-1 pH8.8). Compounds stocks (100 mM) were stored at -20°C in DMSO. Compounds were tested at different concentrations: from 200 µM to 91 nM.
Reactions were performed as duplicates in Black LJL 96 well plates (HE microplates; Molecular Devices; 20 µl final reaction volume). The substrate concentration for USP8 was 400 nM Ub-AMC (Boston Biochem). The concentration of the enzyme (USP8) in specificity assays was 1.36 nM. The concentrations were determined in order to perform specificity assays under initial velocities at fixed substrate concentration. Compounds were pre-incubated with enzymes for 30 minutes at 25°C. Reactions were initiated by addition of substrate to the plates containing the enzymes (+/- compounds) diluted in assay buffer. Reactions were incubated for 60 minutes at 37°C. Reactions were stopped by adding acetic acid (100 mM final). Readings were performed on a Pherastar Fluorescent Reader (BMG). λ Emission 380 nm : λ Excitation = 460 nm. Data (mean values +/- standard deviation) were analyzed as % of control (no compound) and plotted as percentage versus the Log of the compound concentration using GraphPad (Prism). Data were fitted to a sigmoidal model (variable slope).
On to `CC(=O)C1=C(O)C(=O)N(CCc2ccc(Cl)cc2)C1c1ccc(Br)cc1` (stereo not shown) [Example 25, 4-acetyl-5-(4-bromo-phenyl)-1-[2-(4-chloro-phenyl)-ethyl]-3-hydroxy-1,5-dihydro-pyrrol-2-one], for which the IC50 is over 200 µM.

For `CC(=O)C1=C(O)C(=O)N(CCc2ccc(Br)cc2)C1c1ccc(Br)cc1` (stereo not shown) [Example 26, 4-acetyl-5-(4-bromo-phenyl)-1-[2-(4-bromo-phenyl)-ethyl]-3-hydroxy-1,5-dihydro-pyrrol-2-one], the IC50 is over 200 µM.

Take `CC(=O)C1=C(O)C(=O)N(CCc2ccc(Cl)c(Cl)c2)C1c1ccc(Br)cc1` (stereo not shown) [Example 28, 4-acetyl-5-(4-bromo-phenyl)-1-[2-(3,4-dichloro-phenyl)-ethyl]-3-hydroxy-1,5-dihydro-pyrrol-2-one]: the IC50 is over 200 µM.

Consider `COc1cccc(CCN2C(=O)C(O)=C(C(C)=O)C2c2ccc(Br)cc2)c1` (stereo not shown) [Example 30, 4-acetyl-5-(4-bromo-phenyl)-3-hydroxy-1-[2-(3-methoxyphenyl)-ethyl]-1,5-dihydro-pyrrol-2-one], for which the IC50 was over 200 µM.

As for `COc1ccc(CCN2C(=O)C(O)=C(C(C)=O)C2c2ccc(Br)cc2)cc1` (stereo not shown) [Example 32, 4-acetyl-5-(4-bromo-phenyl)-3-hydroxy-1-[2-(4-methoxyphenyl)-ethyl]-1,5-dihydro-pyrrol-2-one], the IC50 is over 200 µM.

Regarding `CC(=O)C1=C(O)C(=O)N(CCc2ccc(F)cc2)C1c1ccc(Br)cc1` (stereo not shown) [Example 33, 4-acetyl-5-(4-bromo-phenyl)-3-hydroxy-1-[2-(4-fluorophenyl)-ethyl]-1,5-dihydro-pyrrol-2-one], the IC50 is over 200 µM.

As to `CCOc1ccc(CCN2C(=O)C(O)=C(C(C)=O)C2c2ccc(Br)cc2)cc1` (stereo not shown) [Example 34, 4-acetyl-5-(4-bromo-phenyl)-3-hydroxy-1-[2-(4-ethoxy-phenyl)-ethyl]-1,5-dihydro-pyrrol-2-one], the IC50 was over 200 µM.

As to `CC(=O)C1=C(O)C(=O)N(CCc2ccccc2)C1c1ccc2c(c1)OCO2` (stereo not shown) [Example 37, 4-acetyl-5-benzo[1,3]dioxol-5-yl-3-hydroxy-1-phenethyl-1,5-dihydro-pyrrol-2-one], the IC50 was over 200 µM.

As to `CC(=O)C1=C(O)C(=O)N(CCc2ccccc2)C1c1ccc(Br)c(Br)c1` (stereo not shown) [Example 41, 4-acetyl-5-(3,4-dibromo-phenyl)-3-hydroxy-1-phenethyl-1,5-dihydro-pyrrol-2-one], the IC50 was over 200 µM.

For `CC(=O)C1=C(O)C(=O)N(CCc2ccccc2)C1c1cccnc1Cl` (stereo not shown) [Example 42, 4-acetyl-5-(2-chloro-pyridin-3-yl)-3-hydroxy-1-phenethyl-1,5-dihydro-pyrrol-2-one], the IC50 was over 200 µM.

For `CC(=O)C1=C(O)C(=O)N(CCc2ccc(Br)cc2)C1c1ccc(Cl)cc1` (stereo not shown) [Example 45, 4-Acetyl-5-(4-chlorophenyl)-1-[2-(4-bromophenyl)-ethyl]-3-hydroxy-1,5-dihydro-pyrrol-2-one], the IC50 was over 200 µM.

For the compound `CC(=O)C1=C(O)C(=O)N(CCc2ccc(Cl)cc2)C1c1ccc(Cl)cc1` (stereo not shown) [Example 46, 4-Acetyl-5-(4-chlorophenyl)-1-[2-(4-chlorophenyl)-ethyl]-3-hydroxy-1,5-dihydro-pyrrol-2-one], the IC50 was over 200 µM.

As for `CC(=O)C1=C(O)C(=O)N(CCc2ccc(Cl)cc2Cl)C1c1ccc(Br)cc1` (stereo not shown) [Example 47, 4-Acetyl-5-(4-bromophenyl)-1-[2-(2,4-dichlorophenyl)-ethyl]-3-hydroxy-1,5-dihydro-pyrrol-2-one], the IC50 is over 200 µM.
